Measured values reported in article PMC11576293, “New series of 4,6-diaryl pyrimidines: facile synthesis and antiproliferative activity as dual EGFR/VEGFR-2 inhibitors” (Frontiers in Chemistry, 2024).

Experiments:
Assay type in all cases: cell-based
786-0 = assay: NCI-60 single-dose screen; conditions: Homo sapiens, single dose 10 µM, '-' = no inhibition, read-out: % Growth Inhibition
How it was run: (§1)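 Compounds tested once at 10 μM across the NCI-60 panel of 60 human cancer cell lines spanning nine tumour types (leukemia, lung, colon, CNS, melanoma, ovarian, renal, prostate, breast), run by the NCI Developmental Therapeutics Program.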

A549/ATCC = assay: NCI-60 single-dose screen; conditions: Homo sapiens, single dose 10 µM, '-' = no inhibition, read-out: % Growth Inhibition
How it was run: as §1

COLO 205 = assay: NCI-60 single-dose screen; conditions: Homo sapiens, single dose 10 µM, '-' = no inhibition, read-out: % Growth Inhibition
How it was run: as §1

HCT-116 = assay: NCI-60 single-dose screen; conditions: Homo sapiens, single dose 10 µM, '-' = no inhibition, read-out: % Growth Inhibition
How it was run: as §1

HOP-62 = assay: NCI-60 single-dose screen; conditions: Homo sapiens, single dose 10 µM, '-' = no inhibition, read-out: % Growth Inhibition
How it was run: as §1

HOP-92 = assay: NCI-60 single-dose screen; conditions: Homo sapiens, single dose 10 µM, '-' = no inhibition, read-out: % Growth Inhibition
How it was run: as §1

HS 578T = assay: NCI-60 single-dose screen; conditions: Homo sapiens, single dose 10 µM, '-' = no inhibition, read-out: % Growth Inhibition
How it was run: as §1

OVCAR-4 = assay: NCI-60 single-dose screen; conditions: Homo sapiens, single dose 10 µM, '-' = no inhibition, read-out: % Growth Inhibition
How it was run: as §1

OVCAR-5 = assay: NCI-60 single-dose screen; conditions: Homo sapiens, single dose 10 µM, '-' = no inhibition, read-out: % Growth Inhibition
How it was run: as §1

SK-MEL-5 = assay: NCI-60 single-dose screen; conditions: Homo sapiens, single dose 10 µM, '-' = no inhibition, read-out: % Growth Inhibition
How it was run: as §1

T-47D = assay: NCI-60 single-dose screen; conditions: Homo sapiens, T47D, single dose 10 µM, '-' = no inhibition, read-out: % Growth Inhibition
How it was run: as §1

U251 = assay: NCI-60 single-dose screen; conditions: Homo sapiens, U-251, single dose 10 µM, '-' = no inhibition, read-out: % Growth Inhibition
How it was run: as §1

[1] = Cell viability assay (MTT) on normal cells; conditions: human, MCF-10A normal mammary gland epithelial cells, 4 days incubation
Experimental: (§2) This experiment examines the impact of the newly developed compounds 9–29 on normal cell lines to assess their safety level. The vitality of the investigated compounds was assessed using the MCF-10 A cell line, a normal human mammary gland epithelial cell line. Following 4 days of incubation on MCF-10 A cells with each examined compound at a concentration of 50 μM, the vitality of the cells was assessed using the MTT test ([Mahmoud et al., 2022]; [Mekheimer et al., 2022]).
as §2, with “The viability” for “The vitality”, “of 9–29” for “of the investigated compounds”, “2022]). Refer to Supplementary Material A1 for more details. […]” for “2022]).”
4.2. Biological evaluation
4.2.1. Cytotoxic activity using MTT Assay and evaluation of IC50
MTT assay was carried out to study the effect of compounds on mammary epithelial cells (MCF-10A). The medium in which cells were propagated contained Dulbecco's modified Eagle's medium (DMEM)/ Ham's F-12 medium (1:1) supplemented with epidermal growth factor (20 ng/mL), hydrocortisone (500 ng/mL), insulin (10 μg/mL), 2 mM glutamine and 10% foetal calf serum.
After every 2-3 days, the cells were passaged using trypsin ethylenediamine tetra acetic acid (EDTA). The cells were seeded at a density of 10^4 cells mL-1 in flat-bottomed culture plates containing 96 wells each. After 24 h, medium was removed from the plates and the compounds in (in 0.1% DMSO) were added (in 200 μL medium to yield a final concentration of 0.1% v/v) to the wells of plates. A single compound was designated with four wells followed by incubation of plates for 96h at 37°C. After incubation, medium was removed completely from the plates followed by addition of MTT (0.4 mg/mL in medium) to each well and subsequent incubation of plates for 3h. MTT (along with the medium) was removed and DMSO (150μL) was added to each well of the culture plates, followed by vertexing and subsequent measurement of absorbance (at 540 nm) using microplate reader. The data are shown as percentage inhibition of proliferation in comparison with controls containing 0.1% DMSO. […]

MCF-7 = assay: Antiproliferative assay (MTT); conditions: Homo sapiens, MCF7, MCF-7 (breast), read-out: Antiproliferative activity IC50 ± SEM, MCF-7
Text: (§3) The MTT test was employed for this investigation ([Hisham et al., 2022]; [El-Sherief et al., 2019]; [Ramadan et al., 2020]). Table 2 presents the four cancer cell lines’ median inhibitory concentration (IC50) and GI50 (average IC50) values.
(§4) The MTT test was employed for this investigation ([Hisham et al., 2022]; [El-Sherief et al., 2019]; [Ramadan et al., 2020]). The IC50 values were derived from dose-response tests. The reported data are derived from at least two independent studies, each comprising three replicates per concentration. See Supplementary Material A1 for more details.
(§5) (in 0.1% DMSO) were added (in 200 μL medium to yield a final concentration of 0.1% v/v) to the wells of plates. A single compound was designated with four wells followed by incubation of plates for 96h at 37°C. After incubation, medium was removed completely from the plates followed by addition of MTT (0.4 mg/mL in medium) to each well and subsequent incubation of plates for 3h. MTT (along with the medium) was removed and DMSO (150μL) was added to each well of the culture plates, followed by vertexing and subsequent measurement of absorbance (at 540 nm) using microplate reader. The data are shown as percentage inhibition of proliferation in comparison with controls containing 0.1% DMSO.
(§6) 4.2.1.2. Assay for antiproliferative effect […]
(§7) (10%) and 1 µg/mL each of aprotinin, leupeptin and pepstatin for 120 min. The purification was performed either at 4 °C or on ice. To record autophosphorylation level, EGFR kinase assay was carried out on the basis of DELFIA/Time-Resolved Fluorometry. The compounds were first
(§8) (1 picture or pasted object on this page, not shown here)

Panc-1 = assay: Antiproliferative assay (MTT); conditions: Homo sapiens, Panc-1 (pancreatic), read-out: Antiproliferative activity IC50 ± SEM, Panc-1
Text: as §3, §4, §5, §6, §7, §8

Row | Structure (SMILES) | inhibition at 10 µM (786-0) | inhibition at 10 µM (A549/ATCC) | inhibition at 10 µM (COLO 205) | inhibition at 10 µM (HCT-116) | inhibition at 10 µM (HOP-62) | inhibition at 10 µM (HOP-92) | inhibition at 10 µM (HS 578T) | inhibition at 10 µM (OVCAR-4) | inhibition at 10 µM (OVCAR-5) | inhibition at 10 µM (SK-MEL-5) | inhibition at 10 µM (T-47D) | inhibition at 10 µM (U251) | viability at 4 days, 50 µM [1] | IC50 (MCF-7) | IC50 (Panc-1)
1 | COc1ccc(-c2cc(-c3ccc(Cl)cc3)nc(SC)n2)cc1 [Compound 9, 4-(4-Chlorophenyl)-6-(4-methoxyphenyl)-2-(methylthio)pyrimidine] | 1.88% | 7.56% | 0.19% | 5.47% | 9.16% | 3.16% | 7.95% | 4.46% | < 0% | 4.98% | 9.97% | 3.42% | 91% | 65 ± 6 nM | 62 ± 6 nM
2 | CCSc1nc(-c2ccc(Cl)cc2)cc(-c2ccc(OC)c(OC)c2)n1 [Compound 24, 4-(4-Chlorophenyl)-2-(ethylthio)-6-(3,4-dimethoxyphenyl)pyrimidine] | 11.8% | 23% | 35.4% | 30% | < 0% | 1.94% | 20.6% | 26.4% | 11% | 28.9% | 37.6% | 14.7% | 91% | 33 ± 3 nM | 30 ± 3 nM
3 | COc1ccc(-c2cc(-c3ccc(Cl)cc3)nc(SCc3ccccc3)n2)cc1OC [Compound 28, 2-(Benzylthio)-4-(4-chlorophenyl)-6-(3,4-dimethoxyphenyl)pyrimidine] | 7.96% | 18.9% | 3.49% | 25.9% | < 0% | 0.63% | 18.2% | 21.5% | 6.33% | 30.1% | 33% | 13.1% | 92% | 43 ± 3 nM | 40 ± 3 nM
4 | COc1ccc(CSc2nc(-c3ccc(Cl)cc3)cc(-c3ccc(OC)c(OC)c3)n2)cc1 [Compound 29, 2-(4-Methoxybenzylthio)-4-(4-chlorophenyl)-6-(3,4-dimethoxyphenyl)pyrimidine] | 11.6% | 30.1% | 11.3% | 30.2% | 16.4% | 20.6% | 37.5% | 21.9% | 7.38% | 22.6% | 34.6% | 23.3% | 91% | 25 ± 2 nM | 23 ± 2 nM
5 | C=CCSc1nc(-c2ccc(OC)cc2)cc(-c2cccc(OC)c2)n1 [Compound 20, 2-(Allylthio)-6-(3-methoxyphenyl)-4-(4-methoxyphenyl)pyrimidine] | < 0% | 1.93% | < 0% | 5.47% | < 0% | < 0% | < 0% | 5.65% | < 0% | 1.41% | 21.5% | < 0% | 90% | 73 ± 6 nM | 70 ± 6 nM
6 | COc1ccc(-c2cc(-c3ccc(Cl)cc3)nc(SC)n2)cc1OC [Compound 23, 4-(4-Chlorophenyl)-6-(3,4-dimethoxyphenyl)-2-(methylthio)pyrimidine] | 6.05% | 19.8% | 8.14% | 33.7% | < 0% | < 0% | 17% | 27.5% | 11.9% | 24.5% | 25.5% | 11.6% | 90% | 50 ± 4 nM | 47 ± 4 nM
7 | COc1ccc(-c2cc(-c3ccc(Cl)cc3)nc(SC(C)C)n2)cc1OC [Compound 26, 4-(4-Chlorophenyl)-2-(isopropylthio)-6-(3,4-dimethoxyphenyl)pyrimidine] | < 0% | 0.02% | < 0% | 2.84% | < 0% | < 0% | < 0% | < 0% | < 0% | < 0% | 14.2% | < 0% | 90% | 42 ± 3 nM | 40 ± 3 nM
8 | COc1ccc(CSc2nc(-c3ccc(OC)cc3)cc(-c3cccc(OC)c3)n2)cc1 [Compound 22, 2-(4-Methoxybenzylthio)-6-(3-methoxyphenyl)-4-(4-methoxyphenyl)pyrimidine] |  |  |  |  |  |  |  |  |  |  |  |  | 89% | 23 ± 2 nM | 22 ± 2 nM
9 | COc1ccc(-c2cc(-c3ccc(Cl)cc3)nc(SC(C)C)n2)cc1 [Compound 12, 4-(4-Chlorophenyl)-2-(isopropylthio)-6-(4-methoxyphenyl)pyrimidine] | 7.48% | 15.9% | < 0% | 19.6% | < 0% | < 0% | < 0% | 11.8% | < 0% | 17.9% | 40.4% | 7.59% | 89% | 37 ± 3 nM | 36 ± 3 nM
10 | COc1ccc(-c2cc(-c3ccc(Cl)cc3)nc(SCc3ccccc3)n2)cc1 [Compound 14, 2-(Benzylthio)-4-(4-chlorophenyl)-6-(4-methoxyphenyl)pyrimidine] | < 0% | 2.08% | 10.3% | < 0% | < 0% | < 0% | < 0% | < 0% | 2.5% | 2.06% | 14.4% | < 0% | 90% | 30 ± 2 nM | 29 ± 2 nM
